Laboratory results as given in US8222417B2, “Compound having 11β-HSD1 inhibitory activity” (Taisho Pharmaceutical Co., Ltd, priority 2007, dated 2012).

The compounds below were run against T1, 11β-HSD1 (Homo sapiens, UniProt P28845) (assay: 11β-HSD1 inhibition test (human liver microsome, HTRF cortisol detection)). Settings: human liver microsome as enzyme source; cortisone 100 nM; 20° C., 80 minutes; generated cortisol quantified by HTRF.
T1 construct: human liver microsome (enzyme source, Tissue Transformation Technologies); tissue Tissue Transformation Technologies; host or cells: human liver microsomes
T1 sequence (P28845 whole entry): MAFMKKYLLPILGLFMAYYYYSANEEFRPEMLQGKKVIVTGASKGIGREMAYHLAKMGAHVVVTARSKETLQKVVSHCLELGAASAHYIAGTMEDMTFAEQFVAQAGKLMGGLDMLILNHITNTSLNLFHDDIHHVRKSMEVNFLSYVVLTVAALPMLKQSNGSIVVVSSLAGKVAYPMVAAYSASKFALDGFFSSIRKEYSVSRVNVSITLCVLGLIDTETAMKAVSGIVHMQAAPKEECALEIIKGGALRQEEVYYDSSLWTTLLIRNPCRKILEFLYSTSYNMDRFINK
Assay type: biochemical
Description: Test Example [11β-HSD1 Inhibition Test]
Test Compounds were Evaluated as Follows.
11β-HSD1 enzyme reaction was performed in a reaction solution of 100 μl total volume using 96-well polypropylene microplates. The reaction solution was prepared in 30 mM Tris-HCl (pH 7.4)/1 mM EDTA buffer to contain NADPH at a final concentration of 100 μM, G6P at a final concentration of 1 mM, human liver microsome (enzyme source, Tissue Transformation Technologies) at a final concentration of 0.8 μg/ml and 10 μl of a test compound dissolved in DMSO. The enzyme reaction was initiated by addition of cortisone at a final concentration of 100 nM. After incubation at 20° C. for 80 minutes, 10 μl of 1 mM 18β glycyrrhetinic acid, which is a non-specific inhibitor, was added to stop the reaction. Next, the amount of generated cortisol was quantified with a detection kit (Sceti Medical Labo K.K., Japan) according to the HTRF (Homogeneous Time-Resolved Fluorescence) method. This system detects fluorescence resonance energy transfer between europium-labeled anti-cortisol antibody and XL665-labeled cortisol. Upon addition of unlabeled cortisol, binding signals will be attenuated due to competitive reaction. Based on this principle, the amount of cortisol generated by the enzyme reaction was evaluated using a standard curve obtained from samples with known concentrations of cortisol included in the kit. The HTRF reaction was performed in 96-well half area microplates as follows: to 30 μl enzyme reaction solution, an anti-cortisol antibody solution (15 μl) and an XL665-labeled cortisol solution (15 μl) included in the kit were added, and the plates were vortexed at room temperature for 1 hour and further allowed to stand at 20° C. for 1 hour. 40 μl of this reaction solution was transferred to 384-well microplates and measured for its fluorescence. 18β Glycyrrhetinic acid was added to wells before initiation of the enzyme reaction and the amount of cortisol generated in these wells was used as a background level. Test compounds were evaluated using serial dilutions at a common ratio of 3 to calculate their IC50 values, assuming that the amount of cortisol generated in wells containing no test compound was set to 100% enzyme activity.
In the case of `O=C(NC1C2CC3CC(C2)CC1C3)N1CCCc2ccccc21` (stereo not drawn) [Compound A-5, N-adamantan-2-yl-3,4-dihydroquinoline-1(2H)-carboxamide], the IC50 is reported as 1.5 nM.
With `O=C(N[C@H]1C2CC3CC1C[C@](O)(C3)C2)N1CCc2ccccc21` [Compound A-6, N—[E-1-hydroxyadamantan-4-yl]-2,3-dihydro-1H-indole-1-carboxamide] the IC50 was 8.3 nM.
In the case of `CN(C(=O)N1CCCc2ccccc21)[C@H]1C2CC3CC1C[C@](O)(C3)C2` [Compound A-7, N-[E-1-hydroxyadamantan-4-Y^1]-N-methyl-3,4-dihydroquinoline-1(2H)-carboxamide], the IC50 is reported as 9.6 nM.
